Measured values published in patent US20110009351A1, “SCREENING ASSAY TO IDENTIFY CORRECTORS OF PROTEIN TRAFFICKING DEFECTS” (Traffick Therepeutics Inc., priority 2007, published 2011).
“Also recorded” adds a separate entry of the source. Counter-ions that a name gives are not always drawn.

Assays:
F508del CFTR = target: T1, F508del CFTR (Homo sapiens, UniProt P13569, DEL508-508); test: YFP fluorescence quenching functional assay (iodide influx), HEK293 cells with F508del CFTR and halide sensitive YFP; format: cell-based; conditions: 10 μM, 24 h
T1 construct: expressed in transfected cells; host or cells: HEK293 Griptite cells stably expressing F508del CFTR, transiently transfected with halide-sensitive eYFP
T1 sequence (P13569 with tags, fused parts or gaps DEL508-508): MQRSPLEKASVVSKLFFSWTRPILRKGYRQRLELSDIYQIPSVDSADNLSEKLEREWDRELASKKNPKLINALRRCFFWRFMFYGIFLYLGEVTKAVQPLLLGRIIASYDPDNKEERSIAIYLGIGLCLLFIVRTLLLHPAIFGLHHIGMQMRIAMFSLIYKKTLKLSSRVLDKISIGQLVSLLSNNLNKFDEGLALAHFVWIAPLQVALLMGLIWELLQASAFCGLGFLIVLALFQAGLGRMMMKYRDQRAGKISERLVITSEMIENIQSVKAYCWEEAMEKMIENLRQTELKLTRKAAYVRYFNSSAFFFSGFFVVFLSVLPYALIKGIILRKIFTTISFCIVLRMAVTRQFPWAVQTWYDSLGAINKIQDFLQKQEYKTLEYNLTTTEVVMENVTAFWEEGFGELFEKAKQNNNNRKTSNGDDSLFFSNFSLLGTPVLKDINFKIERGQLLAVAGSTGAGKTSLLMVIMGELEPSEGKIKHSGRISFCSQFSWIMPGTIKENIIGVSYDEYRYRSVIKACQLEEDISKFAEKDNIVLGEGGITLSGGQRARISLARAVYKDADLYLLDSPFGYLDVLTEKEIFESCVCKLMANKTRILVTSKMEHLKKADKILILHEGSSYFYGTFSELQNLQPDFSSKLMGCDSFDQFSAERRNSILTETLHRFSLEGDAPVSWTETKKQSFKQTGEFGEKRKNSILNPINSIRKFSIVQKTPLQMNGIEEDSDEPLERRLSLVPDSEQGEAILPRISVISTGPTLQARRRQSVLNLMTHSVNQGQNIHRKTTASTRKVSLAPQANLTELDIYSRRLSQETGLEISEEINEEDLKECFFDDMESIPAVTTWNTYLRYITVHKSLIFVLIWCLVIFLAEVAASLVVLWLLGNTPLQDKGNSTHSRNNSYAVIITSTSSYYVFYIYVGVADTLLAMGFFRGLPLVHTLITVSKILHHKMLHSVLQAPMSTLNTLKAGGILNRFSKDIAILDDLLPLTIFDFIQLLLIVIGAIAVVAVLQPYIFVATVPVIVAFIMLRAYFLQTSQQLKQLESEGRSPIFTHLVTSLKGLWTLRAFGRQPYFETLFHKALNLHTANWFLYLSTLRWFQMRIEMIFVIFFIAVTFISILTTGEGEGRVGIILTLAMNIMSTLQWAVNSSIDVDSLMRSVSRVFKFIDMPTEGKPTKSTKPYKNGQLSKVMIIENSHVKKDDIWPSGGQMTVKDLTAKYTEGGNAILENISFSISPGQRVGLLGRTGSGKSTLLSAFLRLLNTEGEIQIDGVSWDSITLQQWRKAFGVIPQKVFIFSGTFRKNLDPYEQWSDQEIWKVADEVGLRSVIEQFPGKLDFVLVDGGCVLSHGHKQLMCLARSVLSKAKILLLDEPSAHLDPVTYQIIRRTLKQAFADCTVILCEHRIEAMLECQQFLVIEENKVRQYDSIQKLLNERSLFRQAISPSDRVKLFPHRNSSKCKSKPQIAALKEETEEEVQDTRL
Procedure, shortened: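 HEK293 Griptite cells stably expressing F508del CFTR, transiently transfected with halide-sensitive eYFP, treated 24 h with 10 μM compound in triplicate, then stimulated 20 min with 25 μM forskolin, 45 μM IBMX and 50 μM genistein. YFP quench after 50 mM iodide imaged 15 times over 40 s on 150-300 cells/well.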

[1] = clinical use; cited from earlier work
ΔF508-CFTR = ΔF508-CFTR (Homo sapiens, UniProt P13569, DEL508-508); format: cell-based; parameters: which was then ligated into full length pNUT-CFTR linearized using Hpa1 and Pml1; expressed in transfected cells
Sequence of ΔF508-CFTR (P13569 with tags, fused parts or gaps DEL508-508): as above
Procedure, shortened: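 BHK cells stably expressing 3HA-tagged ΔF508-CFTR (tags in fourth extracellular loop) treated with compound at 20 μM final for 24 h at 37° C. Surface ΔF508-CFTR measured on fixed, non-permeabilised cells by anti-HA/FITC immunofluorescence (488/510 nm), relative to untreated-well background; hits retested in duplicate, intrinsically fluorescent compounds excluded.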

## O=C(OCC(O)CO)c1ccccc1Nc1ccnc2cc(Cl)ccc12 (stereo not drawn) [Glafenine hydrochloride, 2-[(7-chloro-4-quinolinyl)amino]benzoic acid 2,3-dihydroxypropyl ester]
F508del CFTR
  functional correction in YFP quenching assay: test positive in each case; also recorded: enhanced the cAMP-stimulated iodide influx
F508del CFTR; HEK293, nc = 100% pc = 69.2, read-out: % YFP quench
  remaining activity at 10 µM: 80%
[1]
  concentration achieved clinically in plasma: 10 µM
ΔF508-CFTR; 10 μM, 24 h, compared with vehicle alone
  ΔF508-CFTR surface expression increase, normalized to BHK cells expressing wild-type CFTR: 40%
ΔF508-CFTR; Prestwick library, initial corrector assay, BHK cells
  hit in screen (class letter): W (Medium and weak hits were defined as compounds giving a cell fluorescence signal that was between 2 and 3 or 1 and 2 standard deviations, respectively, above untreated control wells)
ΔF508-CFTR; Prestwick library, initial corrector assay, standard deviations above untreated controls
  hit in screen (score): 1.3
